Consider 17 compounds from patent publication US6903132B2, “Non-peptide GnRH agents, pharmaceutical compositions and methods for their use” (Agouron Pharmaceuticals, Inc., priority 2002, dated 2005).

In one test the target is T1, rat GnRH receptor (Rattus norvegicus, UniProt P30969).
T1 construct: rat pituitaries (Pel Freez Biologicals, Rogers, Ark.) are homogenized in buffer A; tissue Pel Freez Biologicals; host or cells: rat pituitaries
T1 sequence (P30969 1-327): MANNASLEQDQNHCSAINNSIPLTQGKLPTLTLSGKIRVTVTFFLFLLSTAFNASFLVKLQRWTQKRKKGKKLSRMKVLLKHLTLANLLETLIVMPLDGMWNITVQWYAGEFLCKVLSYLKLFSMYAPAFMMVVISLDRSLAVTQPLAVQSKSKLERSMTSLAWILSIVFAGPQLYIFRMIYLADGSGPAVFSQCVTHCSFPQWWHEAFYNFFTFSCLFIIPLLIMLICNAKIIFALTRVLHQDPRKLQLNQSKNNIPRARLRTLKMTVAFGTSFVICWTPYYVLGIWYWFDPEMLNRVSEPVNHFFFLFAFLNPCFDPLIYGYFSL
The experiment in a line: Radioligand binding assay: inhibition of binding of 125I-GnRH-A to GnRH receptors (membranes). Conditions: competition with 125I-GnRH-A, Ki calculated from IC50 (Cheng et al.). As for the experimental part: (§1) HEK 293 cells stably transfected with mouse or human GnRH receptors as described above are grown in Dulbecco's high-glucose, modified Eagle's medium (DMEM) supplemented with 0.2% G418, 10% fetal bovine serum (FBS) and 100U/mL penicillin/streptomycin. GH3 cells stably transfected with the rat GnRH receptor (GGH3) were provided by Dr. William Chin (Harvard Medical School, Boston, Mass.). These cells are extensively characterized previously (Kaiser et al., 1997). The cells are grown in low glucose DMEM containing: 100U/mL penicillin/streptomycin, 0.6% G418 and 10% heat-inactivated FBS.
(§2) HEK 293 cells containing mouse or human receptors, or rat pituitaries (Pel Freez Biologicals, Rogers, Ark.) are homogenized in buffer A containing: 50 mM Tris (pH 7.4), 0.32 M sucrose, 2 mM EGTA, 1 mM PMSF, 5 μg/ml aprotinen, 5 μg/ml Pepstatin A, and 1 μg/ml leupeptin. Homogenized cells are centrifuged at 4° C. at 20,000×g for 25 minutes, re-suspended in buffer A and re-centrifuged at 4° C. at 20,000×g for an additional 25 minutes. Total membrane protein was determined with a BCA kit (Pierce, Rockford, Ill.). Membranes are stored at −70° C. at a final membrane protein concentration of approximately 5 mg/ml.
(§3) The radioiodinated agonist analog of GnRH, [des-Gly^10, D-Ala^6]GnRH ethylamide (^125I-GnRH-A), is used as the radioligand. One μg of GnRH-A diluted in 0.5 M phosphate buffer (pH 7.4) is added to an lodogen®-coated borosilicate glass tube (Pierce, Rockford, Ill.) containing 35 μl of 0.05 M phosphate buffer (pH 7.4-7.6) and 1 mCi of Na[^125I]. The reaction mixture is vortexed and incubated for 1 minute at room temperature. After one minute, the mixture is vortexed and allowed to incubate for an additional minute. 2 ml of 0.5 M acetic acid/1% BSA is added to the reaction tube and the mixture is added to a C18 Sep-Pak cartridge. The cartridge is washed with subsequent washes of 5 ml H2O and 5 ml 0.5 M acetic acid and then eluted with 5×1 ml of 60%CH3CN/40% 0.5 M acetic acid. The eluate is diluted with 3× volume of HPLC buffer A (0.1% TFA in H2O) and loaded onto a C18 column. The iodinated product is eluted over 20-25 min with a gradient of 25-100% CH3CN containing 0.1% TFA. The radioactive fractions (750 μl/fraction) are collected into clean polypropylene tubes containing 100 μl of 10% BSA. Fractions are assessed for biological activity by radiolig and binding. Specific activity of the radioligand was approximately 2200 Ci/mmol.
(§4) Membranes are diluted to 0.01-0.5 mg/ml (depending upon the species of receptor) with assay buffer containing 50 mM HEPES (pH 7.4), 1 mM EDTA, 2.5 mM MgCl2, and 0.1% BSA. Membranes (diluted to utilize similar receptor numbers between assays) are incubated with approximately 0.04-0.06 nM ^125I-GnRH-A in the presence or absence of competing agents (0.1-10,000 nM) in a total volume of 200 μl in 96-well polypropylene plates for 1 hour at room temperature. Assays are stopped by rapid filtration onto 96-well GF/C filters soaked in 0.1% polyethylenimine (PEI) utilizing a Packard 96-well cell harvester. Filters are washed three times with ice-cold PBS (50 mM NaPO4, 0.9% NaCl, 2 mM MgCl2, and 0.02% NaN3, pH 7.4). 35 μl of scintillation cocktail is added to each filter well and filters are counted on a Packard Topcount. Control dose-response curves are generated to GnRH (0.1 nM-100 nM) in each competition binding experiment. Ki values were calculated from IC50 values according to Cheng et al., Biochemical Pharmacol. 22: 3099-3108, 1973. [formula]

Another test concerns the target T2, human GnRH receptors (Homo sapiens, UniProt P30968).
T2 construct: expressed in transfected cells; host or cells: HEK 293
T2 sequence (P30968 1-328): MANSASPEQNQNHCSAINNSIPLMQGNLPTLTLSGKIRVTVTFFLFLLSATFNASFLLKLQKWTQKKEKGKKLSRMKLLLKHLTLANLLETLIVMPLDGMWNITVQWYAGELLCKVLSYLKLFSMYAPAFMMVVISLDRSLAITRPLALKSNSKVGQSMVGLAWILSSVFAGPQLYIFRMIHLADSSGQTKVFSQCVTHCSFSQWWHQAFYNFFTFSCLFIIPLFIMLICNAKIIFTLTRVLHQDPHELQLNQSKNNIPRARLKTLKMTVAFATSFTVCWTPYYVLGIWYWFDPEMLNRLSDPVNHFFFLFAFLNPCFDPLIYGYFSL
Described as above. Conditions: Human GnRH receptor; competition with 125I-GnRH-A; Ki calculated from IC50 (Cheng et al.). As for the experimental part:
as §1, §2, §3, §4

Take `Cc1cc2c(cc1Cc1ccc(C(=O)NNc3ncc(C(F)(F)F)cc3Cl)o1)C(C)(C)OC2(C)C` [Example E3, N′-[3-chloro-5-(trifluoromethyl)pyridin-2-yl]-5-[(1,1,3,3,6-pentamethyl-1,3-dihydro-2-benzofuran-5-yl)methyl]-2-furohydrazide]: the results for the Ki at rat GnRH receptor and on human GnRH receptors were 91 nM and 840 nM, respectively.

As to `Cc1cc2c(cc1Cc1ccc(C(=O)NNc3ccc4ccccc4n3)o1)C(C)(C)OC2(C)C` [Example E4, 5-(1,1,3,3,6-Pentamethyl-1,3-dihydro-isobenzofuran-5-ylmethyl)-furan-2-carboxylic acid N′-quinolin-2-yl-hydrazide], the results for the Ki on rat GnRH receptor and on human GnRH receptors were 23 nM and 24 nM, respectively.

Consider `Cc1cc2c(cc1Oc1ccc(C(=O)NNc3ncnc4scc(C)c34)o1)C(C)(C)CC(C)C2(C)C` (stereo not drawn) [Example I15, 5-(3,5,5,6,8,8-Hexamethyl-5,6,7,8-tetrahydro-naphthalen-2-yloxy)-furan-2-carboxylic acid N′-(5-methyl-thieno[2,3-d]pyrimidin-4-yI)-hydrazide], for which the Ki at rat GnRH receptor was 19 nM; at human GnRH receptors it was 7.2 nM.

On to `Cc1ccc(N(C)NC(=O)c2ccc(Oc3cc4c(cc3C)C(C)(C)C(C)CC4(C)C)o2)nn1` (stereo not drawn) [Example I16, 5-(3,5,5,6,8,8-Hexamethyl-5,6,7,8-etrahydro-naphthalen-2-yloxy)-furan-2-carboxylic acid N′-methyl-N′-(6-methyl-pyridazin-3-yl)-hydrazide], for which the Ki is 18 nM on rat GnRH receptor and 9 nM at human GnRH receptors.

For `Cc1cc2c(c(Br)c1Oc1ccc(C(=O)NNc3cc(C)c4c(C)nn(C)c4n3)o1)C(C)(C)CC2` [Example I22, 5-(4-Bromo-3,3,6-trimethyl-indan-5-yloxy)-furan-2-carboxylic acid N′-(1,3,4-trimethyl-1H-pyrazolo[3,4-b]pyridin-6-yl)-hydrazide], the Ki is 52 nM at rat GnRH receptor and 10 nM on human GnRH receptors.

Turning to `CCN(CC)C(=O)C1(c2ccc(C)c(Cc3ccc(C(=O)NNc4cc(C)c5c(C)nn(C)c5n4)o3)c2)CC1` [Example J20, N,N-diethyl-1-{4-methyl-3-[(5-{[2-(1,3,4-trimethyl-1H-pyrazolo[3,4-b]pyridin-6-yl)hydrazino]carbonyl}-2-furyl)methyl]phenyl} cyclopropanecarboxamide], the Ki on human GnRH receptors was 1410 nM.

As for `Cc1cc(O)ccc1Cc1ccc(C(=O)NNc2cc(C)c3c(C)nn(C)c3n2)o1` [Example J21, 5-(4-Hydroxy-2-methylbenzyl)-N′-(1,3,4-trimethyl-1H-pyrazolo[3,4-b]pyridin-6-yl)-2-furohydrazide], the Ki on human GnRH receptors is ≥ 10000 nM.

Turning to `Cc1cccc(C)c1SCc1ccc(C(=O)NNc2cc(C)c3c(C)nn(C)c3n2)o1` [Example J25, 5-{[(2,6-dimethylphenyl)sulfanyl]methyl}-N′-(1,3,4-trimethyl-1H-pyrazolo[3,4-b]pyridin-6-yl)-2-furohydrazide], the Ki at human GnRH receptors was 1670 nM.

Turning to `Cc1cc2c(cc1Cc1ccc(C(=O)NNc3cc(C)c4c(C)nn(C)c4n3)o1)C(C)(C)CCC2` [Example J26, 5-(3,8,8-Trimethyl-5,6,7,8-tetrahydro-naphthalen-2-ylmethyl)-furan-2-carboxylic acid N′-(1,3,4-trimethyl-1H-pyrazolo[3,4-b]pyridin-6-yl)-hydrazide], the Ki at rat GnRH receptor is 17 nM; at human GnRH receptors it was 1.6 nM.

`Cc1c(C)c(Cc2ccc(C(=O)NNc3cc(C)c4c(C)nn(C)c4n3)o2)c(C)c(Cc2ccc(C(=O)NNc3cc(C)c4c(C)nn(C)c4n3)o2)c1C` [Example J29, 3-(2,3,4,6-Tetramethyl-5-{5-[N′-(1,3,4-trimethyl-1H-pyrazolo[3,4-b]pyridin-6-yl)-hydrazinocarbonyl]-furan-2-ylmethyl}-benzyl)-furan-1-carboxylic acid N′-(1,3,4-trimethyl-1H-pyrazolo[3,4-b]pyridin-6-yl)-hydrazide]: the Ki at human GnRH receptors is 5230 nM.

In the case of `COc1c(Cl)c(C)c(Cl)c(C)c1Cc1ccc(C(=O)NNc2cc(C)c3c(C)nn(C)c3n2)o1` [Example J30, 5-(3,5-Dichloro-2-methoxy-4,6-dimethyl-benzyl)-furan-2-carboxylic acid N′-(1,3,4-trimethyl-1H-pyrazolo[3,4-b]pyridin-6-yl)-hydrazide], the Ki at human GnRH receptors was 480 nM.

Consider `Cc1nc2ccccc2c(Cl)c1Cc1ccc(C(=O)NNc2cc(C)c3c(C)nn(C)c3n2)o1` [Example K1, 5-(4-Chloro-2-methyl-quinolin-3-ylmethyl)-furan-2-carboxylic acid N′-(1,3,4-trimethyl-1H-pyrazolo[3,4-b]pyridin-6-yl)-hydrazide], for which, on human GnRH receptors, the Ki was 4430 nM.

Regarding `Cc1cc(NNC(=O)c2ccc(Oc3cc4c(cc3Cl)NC(=O)CC4(C)C)o2)nc2c1c(C)nn2C` [Example L1], on human GnRH receptors, the Ki was 2110 nM.

As to `Cc1cc(NNC(=O)c2ccc(Oc3cc4c(cc3Cl)N(C)C(=O)CC4(C)C)o2)nc2c1c(C)nn2C` [Example L2, 5-(7-Chloro-1,4,4-trimethyl-2-oxo-1,2,3,4-tetrahydro-quinolin-6-yloxy)-furan-2-carboxylic acid N′-(1,3,4-trimethyl-1H-pyrazolo[3,4-b]pyridin-6-yl)-hydrazide], the Ki on human GnRH receptors was 5020 nM.

With `Cc1cc2c(cc1Oc1ccc(C(=O)NNc3ncc(C(F)(F)F)cc3Cl)o1)C(C)(C)C(C)C2(C)C` (stereo not drawn) [Example M1, 5-(1,1,2,3,3,6-Hexamethyl-indan-5-yloxy)-furan-2-carboxylic acid N′-(chloro-trifluoromethyl-pyridin-2-yl)-hydrazide], the Ki at rat GnRH receptor is 11 nM; at human GnRH receptors, 23 nM.

In the case of `Cc1cc2c(cc1Oc1ccc(C(=O)NNc3ncc(C(F)(F)F)cc3Cl)o1)C(C)(C)OC2` [Example N1, 5-(3,3,6-Trimethyl-1,3-dihydro-isobenzofuran-5-yloxy)-furan-2-carboxylic acid N′-(chloro-trifluoromethyl-pyridin-2-yl)-hydrazide], the Ki on human GnRH receptors is 1140 nM.

Regarding `Cc1cc2c(cc1Oc1ccc(C(=O)NNc3ccc(C(F)(F)F)cn3)o1)C(C)(C)OC2` [Example N4, 5-(3,3,6-Trimethyl-1,3-dihydro-isobenzofuran-5-yloxy)-furan-2-carboxylic acid N′-(5-trifluoromethyl-pyridin-2-yl)-hydrazide], the Ki on human GnRH receptors was 1500 nM.

One may read the Ki as a dissociation constant, usually derived from enzyme kinetics or from competition with a known ligand.
